Laboratory results taken from patent US12662489B2 (Sitryx Therapeutics Limited, priority 2023, dated 2026).

What was measured:
[1] = molecular target: T1, MTHFD1 recombinant human enzyme (Homo sapiens, UniProt P11586); assay: MTHFD1 inhibition assay (NAD(P)H-Glo luminescence); settings: MTHFD1 IC50, recombinant human enzyme 200 nM, NADP, band
T1 sequence (P11586 2-291 limits assumed): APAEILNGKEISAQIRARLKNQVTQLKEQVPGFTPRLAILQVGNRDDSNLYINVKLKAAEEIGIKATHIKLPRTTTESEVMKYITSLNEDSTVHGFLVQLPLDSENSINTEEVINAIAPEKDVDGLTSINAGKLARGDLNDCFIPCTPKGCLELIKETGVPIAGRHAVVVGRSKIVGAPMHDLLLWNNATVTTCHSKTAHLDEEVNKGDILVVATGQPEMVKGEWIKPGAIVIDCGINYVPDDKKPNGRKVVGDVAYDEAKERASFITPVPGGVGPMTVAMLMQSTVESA

[2] = molecular target: T2, MTHFD2 recombinant human enzyme (Homo sapiens, UniProt P13995); assay: MTHFD2 inhibition assay (NAD(P)H-Glo luminescence); settings: for MTHFD1/MTHFD2 IC50 ratio: selectivity of MTHFD2 inhibition over MTHFD1, band
T2 sequence (P13995 36-350): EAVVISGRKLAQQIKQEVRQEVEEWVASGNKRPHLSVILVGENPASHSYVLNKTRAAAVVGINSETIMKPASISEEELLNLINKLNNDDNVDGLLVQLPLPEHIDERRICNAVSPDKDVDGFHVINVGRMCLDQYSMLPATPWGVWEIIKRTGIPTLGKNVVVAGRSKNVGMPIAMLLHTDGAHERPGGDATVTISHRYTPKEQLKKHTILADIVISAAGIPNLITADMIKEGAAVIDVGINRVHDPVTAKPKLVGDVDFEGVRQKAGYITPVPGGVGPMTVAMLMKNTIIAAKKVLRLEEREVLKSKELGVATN

Row | SMILES | IC50 [1] | IC50 [2] | MTHFD1/MTHFD2 IC50 ratio [2]
1 | COC[C@H]1CN(c2ccc3c4c(c(=O)oc3c2C)CN(C(=O)c2ccc(C(=O)NS(=O)(=O)C3(C)CC3)c(O[C@@H]3C[C@@H]5C[C@@H]5C3)c2F)CC4)CCN1C [Example 59, 2-(((1R,3r,5S)-bicyclo[3.1.0]hexan-3-yl)oxy)-3-fluoro-4-(8-((R)-3-(methoxymethyl)-4-methylpiperazin-1-yl)-7-methyl-5-oxo-1,3,4,5-tetrahydro-2H-chromeno[3,4-c]pyridine-3-carbonyl)-N-((1-methylcyclopropyl)sulfonyl)benzamide] | 1 to 10 nM | 1 to 10 nM | F (<3)
2 | COC[C@H]1CN(c2cc(C)c3c4c(c(=O)oc3c2C)CN(C(=O)c2ccc(C(=O)NS(=O)(=O)N3CCCC3)c(N3CCC[C@@H]3C)c2)CC4)CCN1C [Example 122, 4-(8-((R)-3-(methoxymethyl)-4-methylpiperazin-1-yl)-7,10-dimethyl-5-oxo-1,3,4,5-tetrahydro-2H-chromeno[3,4-c]pyridine-3-carbonyl)-2-((S)-2-methylpyrrolidin-1-yl)-N-(pyrrolidin-1-ylsulfonyl)benzamide] | 10 to 100 nM | 10 to 100 nM | F (<3)
3 | CCOc1c(C(=O)NS(=O)(=O)N2CCCCC2)ccc(C(=O)N2CCc3c(c(=O)oc4c(C)c(N5CCN(C)[C@@H](COC)C5)cc(C)c34)C2)c1F [Example 197, (R)-2-ethoxy-3-fluoro-4-(8-(3-(methoxymethyl)-4-methylpiperazin-1-yl)-7,10-dimethyl-5-oxo-1,3,4,5-tetrahydro-2H-chromeno[3,4-c]pyridine-3-carbonyl)-N-(piperidin-1-ylsulfonyl)benzamide] | 10 to 100 nM | 10 to 100 nM | G (^ 3 to 9.0)
4 | COC[C@H]1CN(c2cc(C)c3c4c(c(=O)oc3c2C)CN(C(=O)c2ccc(C(=O)NS(=O)(=O)N3CCCC3)c(N3C5CCC3CC5)c2)CC4)CCN1C [Example 121, (R)-2-(7-azabicyclo[2.2.1]heptan-7-yl)-4-(8-(3-(methoxymethyl)-4-methylpiperazin-1-yl)-7,10-dimethyl-5-oxo-1,3,4,5-tetrahydro-2H-chromeno[3,4-c]pyridine-3-carbonyl)-N-(pyrrolidin-1-ylsulfonyl)benzamide] | 1 to 10 nM | 10 to 100 nM | F (<3)
5 | COC[C@H]1CN(c2cc(C)c3c4c(c(=O)oc3c2C)CN(C(=O)c2ccc(C(=O)NS(=O)(=O)N3CCCC3)c(OC3C[C@@H]5C[C@@H]5C3)c2)CC4)CCN1C (mixture of isomers) [Example 109, 2-(bicyclo[3.1.0]hexan-3-yloxy)-4-(8-((R)-3-(methoxymethyl)-4-methylpiperazin-1-yl)-7,10-dimethyl-5-oxo-1,3,4,5-tetrahydro-2H-chromeno[3,4-c]pyridine-3-carbonyl)-N-(pyrrolidin-1-ylsulfonyl)benzamide] | 10 to 100 nM | 10 to 100 nM | F (<3)
6 | COC[C@H]1CN(c2cc(C)c3c4c(c(=O)oc3c2C)CN(C(=O)c2cc(C)c(C(=O)NS(=O)(=O)N(C)C)c(N3CCCC3)c2)CC4)CCN1C [Example 106, (R)-N-(N,N-dimethylsulfamoyl)-4-(8-(3-(methoxymethyl)-4-methylpiperazin-1-yl)-7,10-dimethyl-5-oxo-1,3,4,5-tetrahydro-2H-chromeno[3,4-c]pyridine-3-carbonyl)-2-methyl-6-(pyrrolidin-1-yl)benzamide] | 100 to 1000 nM | 10 to 100 nM | H (>9.0 to 30)
7 | COC[C@H]1CN(c2cc(C)c3c4c(c(=O)oc3c2C)CN(C(=O)c2ccc(C(=O)NS(=O)(=O)C3(C)CC3)c(OC3CCC(F)(F)CC3)c2F)CC4)CCN1C [Example 86, (R)-2-((4,4-difluorocyclohexyl)oxy)-3-fluoro-4-(8-(3-(methoxymethyl)-4-methylpiperazin-1-yl)-7,10-dimethyl-5-oxo-1,3,4,5-tetrahydro-2H-chromeno[3,4-c]pyridine-3-carbonyl)-N-((1-methylcyclopropyl)sulfonyl)benzamide] | 10 to 100 nM | 10 to 100 nM | F (<3)
8 | CCOc1cc(C(=O)N2CCc3c(c(=O)oc4c(C)c(N5CCN(C)[C@@H](COC)C5)cc(C)c34)C2)cc(C(F)(F)F)c1C(=O)NS(=O)(=O)N1CCCC1 [Example 160, (R)-2-ethoxy-4-(8-(3-(methoxymethyl)-4-methylpiperazin-1-yl)-7,10-dimethyl-5-oxo-1,3,4,5-tetrahydro-2H-chromeno[3,4-c]pyridine-3-carbonyl)-N-(pyrrolidin-1-ylsulfonyl)-6-(trifluoromethyl)benzamide] | 1000 to 5000 nM | 100 to 1000 nM | H (>9.0 to 30)
9 | COC[C@H]1CN(c2cc(C)c3c4c(c(=O)oc3c2C)CN(C(=O)c2ccc(C(=O)NS(=O)(=O)N(C)C)c(OC(C)C)c2F)CC4)CCN1C [Example 148, (R)-N-(N,N-dimethylsulfamoyl)-3-fluoro-2-isopropoxy-4-(8-(3-(methoxymethyl)-4-methylpiperazin-1-yl)-7,10-dimethyl-5-oxo-1,3,4,5-tetrahydro-2H-chromeno[3,4-c]pyridine-3-carbonyl)benzamide] | 10 to 100 nM | 1 to 10 nM | G (^ 3 to 9.0)

The next lines start with the values.

Row | IC50 [1] | IC50 [2] | MTHFD1/MTHFD2 IC50 ratio [2] | SMILES
10 | 10 to 100 nM | 10 to 100 nM | G (^ 3 to 9.0) | CCCOc1c(C(=O)NS(=O)(=O)N2CCCC2)ccc(C(=O)N2CCc3c(c(=O)oc4c(C)c(N5CCN(C)[C@@H](COC)C5)cc(C)c34)C2)c1F [Example 205, (R)-3-fluoro-4-(8-(3-(methoxymethyl)-4-methylpiperazin-1-yl)-7,10-dimethyl-5-oxo-1,3,4,5-tetrahydro-2H-chromeno[3,4-c]pyridine-3-carbonyl)-2-propoxy-N-(pyrrolidin-1-ylsulfonyl)benzamide]
11 | 100 to 1000 nM | 10 to 100 nM | H (>9.0 to 30) | COC[C@H]1CN(c2cc(Cl)c3c4c(c(=O)oc3c2C)CN(C(=O)c2ccc(C(=O)NS(=O)(=O)N3CC5CC5C3)c(OC)c2)CC4)CCN1C (stereo partly drawn) [Example 280, N-((3-azabicyclo[3.1.0]hexan-3-yl)sulfonyl)-4-(10-chloro-8-((R)-3-(methoxymethyl)-4-methylpiperazin-1-yl)-7-methyl-5-oxo-1,3,4,5-tetrahydro-2H-chromeno[3,4-c]pyridine-3-carbonyl)-2-methoxybenzamide]
12 | 100 to 1000 nM | 10 to 100 nM |  | CCOc1cc(C(=O)N2CCc3c(c(=O)oc4c(C)c(N5CCN(C)[C@@H](COC)C5)cc(Cl)c34)C2)c(F)cc1C(=O)NS(=O)(=O)N1CC2(CCC2)C1 [Example 300, (R)-N-((2-azaspiro[3.3]heptan-2-yl)sulfonyl)-4-(10-chloro-8-(3-(methoxymethyl)-4-methylpiperazin-1-yl)-7-methyl-5-oxo-1,3,4,5-tetrahydro-2H-chromeno[3,4-c]pyridine-3-carbonyl)-2-ethoxy-5-fluorobenzamide]
13 | 100 to 1000 nM | 10 to 100 nM | G (^ 3 to 9.0) | CCOc1c(C(=O)NS(=O)(=O)N2CC3CCC(C3)C2)ccc(C(=O)N2CCc3c(c(=O)oc4c(C)c(N5CCN(C)[C@@H](COC)C5)cc(C)c34)C2)c1F [Example 235]
